# Patent US20180000778A1, “SMALL MOLECULE ANTAGONISTS OF DUSP5 AND METHODS OF USE” (THE MEDICAL COLLEGE OF WISCONSIN, INC., priority 2015, published 2018)
# pIC50: −log10 of the molar value.
# What was measured:
# PTPN6 (SHP1) = PTPN6 (SHP1) (Homo sapiens, UniProt P29350); experiment: Phosphatase profiling, Biomol Green; assay type: biochemical; settings: 30 μM, triplicate; negative = inhibition
# Procedure: (§1) Assays were performed to profile compound CSDDD2320 against 21 phosphatase targets at 1 concentration (30 μM) in triplicate measurements. The aim was to identify whether the compound can affect the activity of the various phosphatase targets selected.
# (§2) The PTPN6 (SHP1), PTPRF (LAR), PP1A, PP1B, PP2A, PTPN12(PTP-PEST), PTPN11(SHP2), CDC25A, CDC25B, CDC25C, PP2Ca, and PP2Cg phosphatase activity was determined by performing assays at 37° C. for 15 minutes in a final volume of 50 μl according to the following assay reaction recipe:
# (§3) Component 1. 10 μl of diluted active protein phosphatase
# (§4) Component 2. 5 μl of 1 mM tyrosine phosphopeptide-2 substrate (for PTPN6, PTPRF, PTPN12, and PTPN11) or threonine phosphopeptide substrate (for PP1A, PP1B, PP2A and PP2Cg) or PI(3,4,5)P3 substrate (for PTEN) or OMFP substrate (for CDC25A, CDC25B and CDC25C)
# (§5) Component 3. 25 μl of phosphatase assay buffer
# (§6) Component 4. 10 μl of compound (150 μM) or 10% DMSO
# (§7) The assay was started by incubating the reaction mixture at 37° C. for 15 minutes. After the 15 minutes incubation period, the assay was terminated by the addition of 100 μl of Biomol Green reagent. The absorbance of the reaction solution was measured in a spectrophotometer at 650 nm. Blank control was set up that included all the assay components except the addition of the tyrosine phosphopeptide-2 substrate or related substrate (replace with equal volume of phosphatase assay buffer). The corrected activity for various phosphatase targets was determined by removing the blank control value.
# PP1B = PP1B (Homo sapiens, UniProt P62140); experiment: Phosphatase profiling, Biomol Green; assay type: biochemical; settings: 30 μM, triplicate; negative = inhibition
# PP1B, sequence (P62140 whole entry, species assumed): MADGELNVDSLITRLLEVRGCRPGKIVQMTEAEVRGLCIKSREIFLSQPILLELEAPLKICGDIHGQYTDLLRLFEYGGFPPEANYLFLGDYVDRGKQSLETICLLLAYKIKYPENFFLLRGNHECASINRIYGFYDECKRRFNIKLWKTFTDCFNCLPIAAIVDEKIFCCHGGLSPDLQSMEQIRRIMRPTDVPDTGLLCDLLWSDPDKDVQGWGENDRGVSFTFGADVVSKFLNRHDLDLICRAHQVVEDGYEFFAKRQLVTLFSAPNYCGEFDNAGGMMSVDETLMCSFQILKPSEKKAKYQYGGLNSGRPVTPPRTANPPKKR
# Procedure: as §1, §2, §3, §4, §5, §6, §7
# PP2Ca = PP2Ca (Homo sapiens, UniProt P35813); experiment: Phosphatase profiling, Biomol Green; assay type: biochemical; settings: 30 μM, triplicate; negative = inhibition
# Procedure: as §1, §2, §3, §4, §5, §6, §7
# PP1A = PP1A (Homo sapiens, UniProt P62136); experiment: Phosphatase profiling, Biomol Green; assay type: biochemical; settings: 30 μM, triplicate; negative = inhibition
# PP1A, sequence (P62136 whole entry, species assumed): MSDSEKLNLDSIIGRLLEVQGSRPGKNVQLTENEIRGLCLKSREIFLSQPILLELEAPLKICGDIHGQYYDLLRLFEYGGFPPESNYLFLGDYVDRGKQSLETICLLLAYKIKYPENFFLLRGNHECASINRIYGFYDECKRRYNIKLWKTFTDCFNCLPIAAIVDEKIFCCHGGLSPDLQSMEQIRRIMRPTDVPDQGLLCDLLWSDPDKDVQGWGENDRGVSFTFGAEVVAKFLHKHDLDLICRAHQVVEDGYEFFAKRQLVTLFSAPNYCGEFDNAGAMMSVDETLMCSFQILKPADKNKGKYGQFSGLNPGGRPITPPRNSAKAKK
# Procedure: as §1, §2, §3, §4, §5, §6, §7
# PTPRF (LAR) = PTPRF (LAR) (Homo sapiens, UniProt P10586); experiment: Phosphatase profiling, Biomol Green; assay type: biochemical; settings: 30 μM, triplicate
# Procedure: as §1, §2, §3, §4, §5, §6, §7
# PP2Cg = PP2Cg (Homo sapiens, UniProt O15355); experiment: Phosphatase profiling, Biomol Green; assay type: biochemical; settings: 30 μM, triplicate
# PP2Cg, sequence (O15355 whole entry): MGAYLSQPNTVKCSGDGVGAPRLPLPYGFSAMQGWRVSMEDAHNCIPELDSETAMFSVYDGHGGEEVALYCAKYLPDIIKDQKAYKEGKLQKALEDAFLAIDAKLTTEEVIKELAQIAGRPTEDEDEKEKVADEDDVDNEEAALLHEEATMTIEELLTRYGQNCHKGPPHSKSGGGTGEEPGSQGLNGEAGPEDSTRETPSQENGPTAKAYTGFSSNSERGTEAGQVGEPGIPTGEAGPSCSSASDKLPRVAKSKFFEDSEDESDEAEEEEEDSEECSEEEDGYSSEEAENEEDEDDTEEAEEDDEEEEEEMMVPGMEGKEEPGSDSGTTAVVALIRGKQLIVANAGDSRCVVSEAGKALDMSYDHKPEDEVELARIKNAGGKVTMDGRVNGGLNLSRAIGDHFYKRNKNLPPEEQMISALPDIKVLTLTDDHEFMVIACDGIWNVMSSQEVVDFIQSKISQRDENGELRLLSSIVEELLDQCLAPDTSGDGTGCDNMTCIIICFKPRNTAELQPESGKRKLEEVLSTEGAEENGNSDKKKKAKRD
# Procedure: as §1, §2, §3, §4, §5, §6, §7
# PP2A = experiment: Phosphatase profiling, Biomol Green; assay type: biochemical; settings: 30 μM, triplicate; negative = inhibition
# Procedure: as §1, §2, §3, §4, §5, §6, §7
# CDC25C = CDC25C (Homo sapiens, UniProt P30307); experiment: Phosphatase profiling, Biomol Green; assay type: biochemical; settings: 30 μM, triplicate; positive = activation
# Procedure: as §1, §2, §3, §4, §5, §6, §7
# CDC25B = CDC25B (Homo sapiens, UniProt P30305); experiment: Phosphatase profiling, Biomol Green; assay type: biochemical; settings: 30 μM, triplicate
# CDC25B, sequence (P30305 whole entry, species assumed): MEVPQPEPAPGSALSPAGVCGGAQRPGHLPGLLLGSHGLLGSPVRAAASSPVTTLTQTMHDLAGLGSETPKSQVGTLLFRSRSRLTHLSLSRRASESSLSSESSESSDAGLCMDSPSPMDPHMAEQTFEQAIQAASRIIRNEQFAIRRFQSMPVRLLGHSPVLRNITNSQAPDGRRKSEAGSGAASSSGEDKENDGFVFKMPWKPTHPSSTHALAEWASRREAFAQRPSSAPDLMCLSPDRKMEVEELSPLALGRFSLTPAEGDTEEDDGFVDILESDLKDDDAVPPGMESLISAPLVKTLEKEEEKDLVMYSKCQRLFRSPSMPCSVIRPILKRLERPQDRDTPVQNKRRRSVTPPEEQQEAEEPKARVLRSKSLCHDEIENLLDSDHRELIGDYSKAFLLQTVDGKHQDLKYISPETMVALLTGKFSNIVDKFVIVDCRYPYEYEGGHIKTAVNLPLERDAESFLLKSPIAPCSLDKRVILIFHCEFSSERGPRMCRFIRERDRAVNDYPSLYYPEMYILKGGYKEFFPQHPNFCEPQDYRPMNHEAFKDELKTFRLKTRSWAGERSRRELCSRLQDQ
# Procedure: as §1, §2, §3, §4, §5, §6, §7
# PTPN12 (PTP-PEST) = PTPN12 (PTP-PEST) (Homo sapiens, UniProt Q05209); experiment: Phosphatase profiling, Biomol Green; assay type: biochemical; settings: 30 μM, triplicate; negative = inhibition
# PTPN12 (PTP-PEST), sequence (Q05209 whole entry, species assumed): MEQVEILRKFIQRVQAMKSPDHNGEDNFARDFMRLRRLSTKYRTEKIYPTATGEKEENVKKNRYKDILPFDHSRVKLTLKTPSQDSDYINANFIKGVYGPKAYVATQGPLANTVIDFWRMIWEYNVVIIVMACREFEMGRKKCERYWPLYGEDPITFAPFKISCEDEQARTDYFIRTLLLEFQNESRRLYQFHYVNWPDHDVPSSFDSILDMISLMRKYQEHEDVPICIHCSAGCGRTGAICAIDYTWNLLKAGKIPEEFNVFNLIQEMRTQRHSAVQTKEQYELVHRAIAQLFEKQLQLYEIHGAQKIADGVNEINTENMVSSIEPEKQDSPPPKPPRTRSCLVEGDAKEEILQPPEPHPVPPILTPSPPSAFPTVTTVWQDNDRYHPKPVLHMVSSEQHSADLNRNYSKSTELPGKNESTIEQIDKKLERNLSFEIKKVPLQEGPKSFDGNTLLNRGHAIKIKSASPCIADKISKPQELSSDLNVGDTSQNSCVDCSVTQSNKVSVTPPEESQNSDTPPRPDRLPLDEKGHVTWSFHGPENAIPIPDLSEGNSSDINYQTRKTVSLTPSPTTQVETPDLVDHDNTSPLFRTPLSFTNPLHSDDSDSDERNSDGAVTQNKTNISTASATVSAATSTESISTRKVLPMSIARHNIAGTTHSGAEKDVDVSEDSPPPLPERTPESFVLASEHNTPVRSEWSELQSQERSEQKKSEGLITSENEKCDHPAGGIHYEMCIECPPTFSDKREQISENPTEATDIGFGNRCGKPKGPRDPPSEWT
# Procedure: as §1, §2, §3, §4, §5, §6, §7
# CDC25A = CDC25A (Homo sapiens, UniProt P30304); experiment: Phosphatase profiling, Biomol Green; assay type: biochemical; settings: 30 μM, triplicate; positive = activation
# CDC25A, sequence (P30304 whole entry, species assumed): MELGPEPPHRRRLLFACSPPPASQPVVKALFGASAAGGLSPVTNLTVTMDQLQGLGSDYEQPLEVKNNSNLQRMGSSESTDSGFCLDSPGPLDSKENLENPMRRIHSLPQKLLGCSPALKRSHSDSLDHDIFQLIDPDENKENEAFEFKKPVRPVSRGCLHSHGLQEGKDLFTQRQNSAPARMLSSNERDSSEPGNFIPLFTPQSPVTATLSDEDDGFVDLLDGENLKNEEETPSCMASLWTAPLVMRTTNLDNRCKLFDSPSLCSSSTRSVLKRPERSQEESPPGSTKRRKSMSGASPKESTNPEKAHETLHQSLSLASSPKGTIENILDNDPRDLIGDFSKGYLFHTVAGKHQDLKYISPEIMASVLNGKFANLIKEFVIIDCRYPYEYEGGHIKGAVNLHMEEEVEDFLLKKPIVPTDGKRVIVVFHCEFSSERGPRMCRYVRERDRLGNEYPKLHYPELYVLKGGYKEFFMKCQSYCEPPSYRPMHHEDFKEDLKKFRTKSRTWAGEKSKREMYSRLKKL
# Procedure: as §1, §2, §3, §4, §5, §6, §7
# PTPN11 (SHP2) = PTPN11 (SHP2) (Homo sapiens, UniProt Q06124); experiment: Phosphatase profiling, Biomol Green; assay type: biochemical; settings: 30 μM, triplicate; positive = activation
# PTPN11 (SHP2), sequence (Q06124 whole entry, species assumed): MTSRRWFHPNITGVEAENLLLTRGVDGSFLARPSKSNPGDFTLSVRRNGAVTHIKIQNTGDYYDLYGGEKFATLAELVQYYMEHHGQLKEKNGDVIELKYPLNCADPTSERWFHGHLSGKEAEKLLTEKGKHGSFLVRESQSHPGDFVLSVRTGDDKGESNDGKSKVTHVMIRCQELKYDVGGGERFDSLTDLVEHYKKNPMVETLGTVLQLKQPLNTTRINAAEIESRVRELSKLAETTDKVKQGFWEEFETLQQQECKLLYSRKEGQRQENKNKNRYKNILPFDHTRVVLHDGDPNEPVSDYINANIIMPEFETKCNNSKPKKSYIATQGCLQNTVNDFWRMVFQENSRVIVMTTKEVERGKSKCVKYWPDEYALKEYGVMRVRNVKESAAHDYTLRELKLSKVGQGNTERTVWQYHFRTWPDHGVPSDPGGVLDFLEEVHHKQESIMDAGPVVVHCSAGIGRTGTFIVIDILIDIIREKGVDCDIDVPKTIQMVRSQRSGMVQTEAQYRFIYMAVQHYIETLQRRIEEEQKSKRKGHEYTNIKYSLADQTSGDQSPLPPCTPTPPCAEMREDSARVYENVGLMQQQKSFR
# Procedure: as §1, §2, §3, §4, §5, §6, §7
# [1] = target: T1, GST-tagged full length DUSP5 (Homo sapiens, UniProt Q16690); experiment: pNPP assay with GST-tagged full length DUSP5; assay type: biochemical; settings: full length DUSP5, pNPP as substrate; listed as CSD3-2320
# T1 construct: GST-tagged full length DUSP5, when pNPP was used as a substrate
# T1 sequence (Q16690 whole entry): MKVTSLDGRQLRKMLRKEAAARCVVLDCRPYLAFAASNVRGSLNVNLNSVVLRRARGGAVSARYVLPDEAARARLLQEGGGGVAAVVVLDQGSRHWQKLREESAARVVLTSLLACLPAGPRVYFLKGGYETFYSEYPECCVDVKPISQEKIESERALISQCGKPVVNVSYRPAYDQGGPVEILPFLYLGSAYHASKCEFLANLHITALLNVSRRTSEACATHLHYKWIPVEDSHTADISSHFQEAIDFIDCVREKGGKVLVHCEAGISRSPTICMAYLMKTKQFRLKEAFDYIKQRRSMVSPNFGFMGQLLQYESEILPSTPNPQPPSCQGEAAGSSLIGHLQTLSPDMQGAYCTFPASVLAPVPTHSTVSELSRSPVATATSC
# [2] = Aggregation of compounds (nephelometry; detergent treatment); assay type: physicochemical
# Procedure: Nephelometry is a technique for measuring the relative aggregation of particles in solution, based on the light-scattering properties of molecular aggregates (30). To explore the ability of the chemicals studied herein to form aggregates, which can lead to artifactual inhibition effects, nephelometry was performed. Compounds were tested for aggregation in 96-well plates using a buffer containing 100 mM Tris base, 100 mM sodium chloride, and 5 mM magnesium chloride at pH 7.5. Each compound analyzed in these experiments contained concentrations of compound ranging from 10-100 μM, recorded in quadruplet. Each plate was analyzed at two separate gain values of 52 and 72. Data were collected using a BMG NEPHELOstar Plus, equipped with a 635 nm laser.
# To investigate whether Suramin aggregates in solution, a property often investigated with small molecules, we performed detergent treatment assays. […] NTS and Suramin were compared using DUSP5 PD IC50 assays performed with and without detergent. […] We concluded that Suramin forms aggregates in vitro which can lead to non-specific protein inhibition effects. Beyond any adverse implications for repurposing Suramin in this project, the aggregation phenomenon raises more global concerns regarding the current clinical use of Suramin, and may in part explain some of the known toxicity associated with Suramin (32).
# DUSP5 (PD)-WT = target: T2, DUSP5 (PD)-WT (Homo sapiens, UniProt Q16690); experiment: Phosphatase inhibition profiles (Table 4), initial rates; assay type: biochemical; settings: using ERK2 as substrate, read-out: IC50 DUSP5 (PD)-WT (mean ± SE)
# T2 construct: hexa-histidine (N); made in house; host or cells: E. coli BL21(DE3)
# T2 sequence (Q16690 178-319): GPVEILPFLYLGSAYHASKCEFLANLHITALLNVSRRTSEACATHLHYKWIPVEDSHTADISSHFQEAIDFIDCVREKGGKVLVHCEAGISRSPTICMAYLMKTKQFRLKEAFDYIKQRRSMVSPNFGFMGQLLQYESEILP
# [3] = tested on: normal vasculature in a developing embryo; experiment: Effect on normal vasculature in a developing embryo
# PTPN6 (SHP1), sequence (P29350 whole entry, species assumed): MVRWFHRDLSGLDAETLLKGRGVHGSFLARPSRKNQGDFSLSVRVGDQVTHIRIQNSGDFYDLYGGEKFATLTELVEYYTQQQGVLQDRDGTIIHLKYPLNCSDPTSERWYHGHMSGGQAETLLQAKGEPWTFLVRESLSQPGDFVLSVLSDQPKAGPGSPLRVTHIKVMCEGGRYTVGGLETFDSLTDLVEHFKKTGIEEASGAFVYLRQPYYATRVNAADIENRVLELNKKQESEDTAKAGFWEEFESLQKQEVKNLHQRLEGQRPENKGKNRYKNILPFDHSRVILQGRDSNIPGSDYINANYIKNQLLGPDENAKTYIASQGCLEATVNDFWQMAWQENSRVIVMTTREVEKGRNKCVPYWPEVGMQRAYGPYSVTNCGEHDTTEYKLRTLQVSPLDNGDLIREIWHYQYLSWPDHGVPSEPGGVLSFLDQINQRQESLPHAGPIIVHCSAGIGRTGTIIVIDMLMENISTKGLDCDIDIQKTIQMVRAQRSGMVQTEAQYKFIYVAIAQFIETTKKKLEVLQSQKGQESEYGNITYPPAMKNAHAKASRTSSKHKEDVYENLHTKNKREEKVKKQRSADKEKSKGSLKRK
structure (smiles),measurement,setting,value
O=S(=O)(O)c1cc(O)c2c(S(=O)(=O)O)cccc2c1 [RR527],% Change (activity change compared to control),PTPN6 (SHP1),−5%
same,% Change (activity change compared to control),PP1B,−1%
same,% Change (activity change compared to control),PP2Ca,−7%
same,% Change (activity change compared to control),PP1A,−3%
same,% Change (activity change compared to control),PTPRF (LAR),0%
same,% Change (activity change compared to control),PP2Cg,0%
same,% Change (activity change compared to control),PP2A,−3%
same,% Change (activity change compared to control),CDC25C,4%
same,% Change (activity change compared to control),CDC25B,0%
same,% Change (activity change compared to control),PTPN12 (PTP-PEST),−1%
same,% Change (activity change compared to control),CDC25A,7%
same,% Change (activity change compared to control),PTPN11 (SHP2),4%
same,pIC50,[1],3.25
same,aggregation,[2],no propensity to aggregate
same,pIC50,DUSP5 (PD)-WT,< 3.00
"O=S(=O)([O-])c1ccc2[nH]c3c(S(=O)(=O)[O-])cc(S(=O)(=O)[O-])cc3c2c1.[Na+].[Na+].[Na+] [RR505, Carbazole-1,3,6-trisulfonic acid, Trisodium Salt]",effect on normal vasculature,[3],does not appear to affect normal vasculature
